In patent US9040530B2, “1,2,4-triazine-6-carboxamide kinase inhibitors” (Portola Pharmaceuticals, Inc., priority 2012, dated 2015):
pIC50: −log10 of the molar value.

Target: T1, full length active recombinant SYK enzyme (Homo sapiens, UniProt P43405)
T1 construct: full length active recombinant SYK enzyme (Millipore, Calif.); purchased Millipore
Assay: Inhibition of Syk tyrosine phosphorylation activity (LANCE TR-FRET kinase assay)
Format: biochemical
Settings: 1 nM active SYK enzyme, 550 nM SYK-substrate, 100 μM ATP, 1 hour at room temperature

SMILES | pIC50
NC(=O)c1nnc(N[C@@H]2CCCC[C@@H]2N)nc1Nc1cccc(Cl)c1 [Example 23, 3-(((1R,2S)-2-aminocyclohexyl)amino)-5-((3-chlorophenyl)amino)-1,2,4-triazine-6-carboxamide] | 8.00 to 9.00
CC[C@@H](Nc1nnc(C(N)=O)c(Nc2ccc(Cl)c(OC)c2)n1)C(N)=O [Example 232, (R)-3-((1-amino-1-oxobutan-2-yl)amino)-5-((4-chloro-3-methoxyphenyl)amino)-1,2,4-triazine-6-carboxamide] | 7.00 to 8.00
CN(C)c1ccc(Nc2nc(N[C@@H]3CCCC[C@@H]3N)nnc2C(N)=O)cc1F [Example 161, 3-(((1R,2S)-2-aminocyclohexyl)amino)-5-((4-(dimethylamino)-3-fluorophenyl)amino)-1,2,4-triazine-6-carboxamide] | 7.00 to 8.00
NC(=O)c1nnc(N[C@@H]2CCCC[C@@H]2N)nc1Nc1cnc2ccccc2c1 [Example 58, 3-(((1R,2S)-2-aminocyclohexyl)amino)-5-(quinolin-3-ylamino)-1,2,4-triazine-6-carboxamide] | 8.00 to 9.00
CC[C@@H](Nc1nnc(C(N)=O)c(Nc2ccccc2)n1)C(N)=O [Example 99, (R)-3-((1-amino-1-oxobutan-2-yl)amino)-5-(phenylamino)-1,2,4-triazine-6-carboxamide] | 6.00 to 7.00
NC(=O)c1nnc(N[C@@H]2CCCC[C@@H]2N)nc1Nc1cccc2ncsc12 [Example 40, 3-(((1R,2S)-2-aminocyclohexyl)amino)-5-(benzo[d]thiazol-7-ylamino)-1,2,4-triazine-6-carboxamide] | 7.00 to 8.00
NC(=O)c1nnc(N[C@@H]2CCOC[C@@H]2N)nc1Nc1ccc2scnc2c1 [Example 247, 3-(((3R,4R)-3-aminotetrahydro-2H-pyran-4-yl)amino)-5-(benzo[d]thiazol-5-ylamino)-1,2,4-triazine-6-carboxamide] | 7.00 to 8.00
NC(=O)c1nnc(N[C@@H]2CCCC[C@@H]2N)nc1Nc1cc(-c2ccc(F)cc2)on1 [Example 127, 3-(((1R,2S)-2-aminocyclohexyl)amino)-5-((5-(4-fluorophenyl)isoxazol-3-yl)amino)-1,2,4-triazine-6-carboxamide] | 6.00 to 7.00
Cn1cc(Nc2nc(N[C@@H]3CCOC[C@@H]3N)nnc2C(N)=O)cn1 [Example 79, 3-(((3R,4R)-3-aminotetrahydro-2H-pyran-4-yl)amino)-5-((1-methyl-1H-pyrazol-4-yl)amino)-1,2,4-triazine-6-carboxamide] | 6.00 to 7.00
NC(=O)c1nnc(N[C@@H]2CCCC[C@@H]2N)nc1Nc1ccc(F)nc1 [Example 67, 3-(((1R,2S)-2-aminocyclohexyl)amino)-5-((6-fluoropyridin-3-yl)amino)-1,2,4-triazine-6-carboxamide] | 6.00 to 7.00
NC(=O)c1nnc(N[C@@H]2CCCC(F)(F)[C@@H]2N)nc1Nc1ccc2c(c1)COC2 [Example 216, 3-(((1R,2R)-2-amino-3,3-difluorocyclohexyl)amino)-5-((1,3-dihydroisobenzofuran-5-yl)amino)-1,2,4-triazine-6-carboxamide] | 7.00 to 8.00
CC[C@@H](Nc1nnc(C(N)=O)c(Nc2cncc(F)c2)n1)C(N)=O [Example 15, (R)-3-((1-amino-1-oxobutan-2-yl)amino)-5-((5-fluoropyridin-3-yl)amino)-1,2,4-triazine-6-carboxamide] | 6.00 to 7.00
N#Cc1ccc(Nc2nc(N[C@@H]3CCOC[C@@H]3N)nnc2C(N)=O)cc1 [Example 76, 3-(((3R,4R)-3-aminotetrahydro-2H-pyran-4-yl)amino)-5-((4-cyanophenyl)amino)-1,2,4-triazine-6-carboxamide] | 6.00 to 7.00
NC(=O)c1nnc(N[C@@H]2CCCC(F)(F)[C@@H]2N)nc1Nc1cccc(C(F)(F)F)c1 [Example 238, 3-(((1R,2R)-2-amino-3,3-difluorocyclohexyl)amino)-5-((3-(trifluoromethyl)phenyl)amino)-1,2,4-triazine-6-carboxamide] | < 6.00
